Consider two compounds from US10952945B2, “Formulations containing an extract of Echinacea and linoleic acid derivatives” (DR. AUGUST WOLFF GMBH & CO. KG ARZNEIMITTEL, priority 2015, dated 2021).

The series addresses TRPV1 (Homo sapiens, UniProt Q8NER1). As to the kind of experiment: Determination of TRPV1 agonistic activity (MTT cell viability of 293 T-VR1 cells). How it is done:
2×10^4 293 T-VR1 cells (or parentale 293T cells as control) are cultivated in 96-well microtiter plates (Costar, Cambridge, Mass.) in 200 μL Dulbecco's Modified Eagle's Medium (DMEM), which also contains 10% foetal calf serum and 1% antibiotics (penicillin/streptomycin). The cells are incubated for 6 h with the test substances or the controls (capsaicin, TRPV1 agonist (1 μM); capsazepine, TRPV1 antagonist (10 μM); or capsaicin (1 μM) and capsazepine (10 μM)). Then, cell viability is determined.
The cytotoxic effect of the test substances was determined using the MTT (3-[4,5-dimethylthiazol-2-yl]-2,5-diphenyltetrazolium bromide) assay method. For this, 50 μL of a solution of MTT in DMEM (5 mg/mL) were added to each well. These were then incubated in the dark for 4 h at 37° C. The reaction was stopped, the residue was removed and 100 μL DMSO were added to each well. Incubation continued for 10 min with gentle shaking. Then the absorption at 550 nm was measured with a TECAN GENios Pro Plate Reader (Tecan Group Ltd., Switzerland). […] The determination was performed in triplicate.

Sequence of TRPV1 (Q8NER1 whole entry, species assumed): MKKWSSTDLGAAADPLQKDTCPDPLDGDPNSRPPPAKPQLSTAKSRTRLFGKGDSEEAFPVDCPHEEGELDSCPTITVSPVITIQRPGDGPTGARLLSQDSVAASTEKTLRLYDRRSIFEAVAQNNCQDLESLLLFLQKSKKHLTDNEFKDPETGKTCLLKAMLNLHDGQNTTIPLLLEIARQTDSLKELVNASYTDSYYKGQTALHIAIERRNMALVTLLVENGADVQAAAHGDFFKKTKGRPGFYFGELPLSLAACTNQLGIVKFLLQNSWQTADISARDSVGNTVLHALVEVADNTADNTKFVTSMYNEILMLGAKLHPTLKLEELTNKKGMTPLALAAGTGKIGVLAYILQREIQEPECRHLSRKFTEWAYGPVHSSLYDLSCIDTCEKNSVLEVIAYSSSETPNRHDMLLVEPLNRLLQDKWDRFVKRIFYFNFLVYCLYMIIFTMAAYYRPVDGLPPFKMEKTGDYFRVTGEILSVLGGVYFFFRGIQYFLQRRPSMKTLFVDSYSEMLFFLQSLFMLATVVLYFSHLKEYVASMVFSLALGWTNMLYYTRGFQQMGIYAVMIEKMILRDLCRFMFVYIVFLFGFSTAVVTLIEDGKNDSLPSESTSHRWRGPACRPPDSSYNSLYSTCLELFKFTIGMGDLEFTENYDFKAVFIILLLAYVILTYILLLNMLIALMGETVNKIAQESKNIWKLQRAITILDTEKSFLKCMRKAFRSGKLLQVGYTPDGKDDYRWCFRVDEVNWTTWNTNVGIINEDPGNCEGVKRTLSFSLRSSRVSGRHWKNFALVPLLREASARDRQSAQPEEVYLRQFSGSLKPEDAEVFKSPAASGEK

Usually cell viability stands for a read-out of living cells in per cent, often relative to untreated cells. With `COc1cc(CNC(=O)CCCC/C=C/C(C)C)ccc1O` [capsaicin], the cell viability is listed as 54.9% (FIG. 1 experiment, capsaicin 1 μM, 293 T-VR1 cells, 6 h, percentage of vehicle control) and 70.6% (FIG. 2 experiment, capsaicin positive control).
On to `Oc1cc2c(cc1O)CN(C(=S)NCCc1ccc(Cl)cc1)CCC2` [capsazepine], for which the cell viability by setting is: (FIG. 1 experiment, capsaicin (1 μM) and capsazepine (10 μM) together) 101.3%; (FIG. 2 experiment, capsaicin together with capsazepine) 104.4%; (human, 6 h, 10 μM) 106.1%.
